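1) Cells in 96-well plates. 2) Compound, 48 h, 5 concentrations. 3) Linear interpolation between surrounding doses. 4) Unreached endpoint = highest concentration. TGI is the concentration that stops growth completely.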
Columns and labels:
Experiment in all cases: inhibition of tumour cell growth, NCI panel, 48 h
COLO 205 colon = tested on: COLO 205 colon
U251 CNS = tested on: U251 CNS
CCRF-CEM leukemia = tested on: CCRF-CEM leukemia
SR leukemia = tested on: SR leukemia
OVCAR-4 ovarian = tested on: OVCAR-4 ovarian
DLD-1 colon = tested on: DLD-1 colon
SNB-78 CNS = tested on: SNB-78 CNS
KM20L2 colon = tested on: KM20L2 colon
HOP-62 NSCLC = tested on: HOP-62 NSCLC
DMS 114 small cell lung = tested on: DMS 114 small cell lung
M19-MEL melanoma = tested on: M19-MEL melanoma
MOLT-4 leukemia = tested on: MOLT-4 leukemia
XF 498 CNS = tested on: XF 498 CNS

Structure (SMILES) | TGI (COLO 205 colon) [µM] | TGI (U251 CNS) [µM] | TGI (CCRF-CEM leukemia) [µM] | TGI (SR leukemia) [µM] | TGI (OVCAR-4 ovarian) [µM] | TGI (DLD-1 colon) [µM] | TGI (SNB-78 CNS) [µM] | TGI (KM20L2 colon) [µM] | TGI (HOP-62 NSCLC) [µM] | TGI (DMS 114 small cell lung) [µM] | TGI (M19-MEL melanoma) [µM] | TGI (MOLT-4 leukemia) [µM] | TGI (XF 498 CNS) [µM]
Nc1ccccc1Sc1ccc(Cl)cc1 | 44.1 | 36.2 | 46.6 | 57.8 | > 100 | > 100 | 46.6 | 42.9 | > 100 | 59.3 | 60.7 | – | –
O=C(c1ccc(Cl)cc1)N(C(=S)N1CCN(c2ccccc2)CC1)c1ccccc1 | > 100 | > 100 | > 100 | > 100 | > 100 | > 100 | > 100 | > 100 | > 100 | – | > 100 | > 100 | –
CC(=O)/C=C/c1c[nH]c(=O)[nH]c1=O | 395 | 503 | 649 | – | 883 | 790 | 756 | 508 | 765 | 585 | 771 | 783 | 151
CC1=CC[C@H](C)C(C)(C)C1/C=C/C(C)=C/CC[C@@]1(CO)[C@H](CCCO)/C(=C(/C)C=O)CC[C@]1(C)O (some centres not stated) | 3.51 | 12.9 | 24.9 | 24.3 | – | 15.1 | 27.5 | 8.23 | – | – | 53.3 | 20.5 | 19.9
CCCC(=O)N[C@@H](Cc1cc(I)c(O)c(I)c1)C(=O)NCCCNCCCCNCCCNC(=O)[C@@H](N)CCCN=C(N)N | > 100 | > 100 | > 100 | > 100 | – | – | – | > 100 | > 100 | > 100 | > 100 | > 100 | > 100
COc1cccc(NC(=O)N/C(=C/c2ccc(N(CCC#N)CCC#N)cc2)NC(=O)c2cc([N+](=O)[O-])ccc2Cl)c1 | > 100 | > 100 | > 100 | > 100 | > 100 | > 100 | > 100 | > 100 | > 100 | > 100 | > 100 | > 100 | > 100
C/C(=C1/N=C(c2cc([N+](=O)[O-])ccc2Cl)N(C2=CC=C(Cl)CC2)C1=O)c1cc2ccccc2oc1=O | > 100 | > 100 | > 100 | > 100 | > 100 | > 100 | > 100 | > 100 | > 100 | > 100 | > 100 | > 100 | –
CCCN(CCC)C(=O)Cc1c2n(c3ccccc13)Cc1ccccc1-2 | > 100 | > 100 | > 100 | > 100 | > 100 | > 100 | > 100 | > 100 | > 100 | > 100 | > 100 | > 100 | > 100
COc1ccc(C2c3cc4c(cc3OC(N3CCOCC3)C2C)OCO4)c(OC)c1 (configuration not stated) | > 57.6 | 15.5 | 38.1 | > 68 | > 100 | – | – | – | 31.5 | – | – | 31.9 | –
COC(=O)c1ccc(NCC2=CC(=O)c3ccccc3C2=O)cc1 | 31.6 | 63 | > 100 | 39.4 | 29.1 | – | – | – | 34.7 | – | – | > 29.1 | –
CCOC(=O)C1(Cc2ccccc2)CCN(C(=O)c2ccccc2)C2C1C2(Cl)Cl (configuration not stated) | 35.9 | 32.6 | 54.1 | 69.7 | > 100 | – | – | – | 87.2 | – | – | 52.9 | –
Cc1cc(S(N)(=O)=O)c(S/C(=N\Nc2ccc([N+](=O)[O-])cc2)c2ccc(Cl)cc2)cc1Cl | > 100 | 5.41 | > 100 | 9.01 | 4.48 | – | – | – | > 100 | – | – | > 100 | –
Cc1ccc(NC(=S)NNC(=O)c2cc(-c3ccccc3)nc3ccccc23)cc1C | 34.2 | 49.4 | 52 | 36.4 | 58.2 | – | – | – | 54.8 | – | – | 53.3 | –
O=[N+]([O-])/C(C(Cl)=C(Cl)Cl)=C(/Sc1ccccc1)N1CCOCC1 | 11 | 23.5 | 4.66 | 5.62 | 28.4 | – | – | – | 33.5 | – | – | 4.61 | –
CNC=O | > 10000 | > 10000 | > 10000 | > 10000 | > 10000 | > 10000 | > 10000 | > 10000 | < 3980 | > 10000 | > 10000 | > 10000 | > 10000

From PubChem BioAssay (NCI)
